As usually defined, the GI50 is the concentration giving 50% growth inhibition. The TGI is the concentration at which net growth stops. Low readings indicate greater sensitivity of the cells, high ones lower sensitivity of the cells.

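Growth conditions: 96-well plates. Treatment: test compound, 48 hours, 5 concentrations. Analysis: linear interpolation between bracketing concentrations; unreached endpoints set to highest concentration. Here, GI50 denotes the concentration required for 50% inhibition of growth. TGI denotes the concentration required for complete inhibition of growth.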

For ten compounds, GI50 and TGI results are on record in PubChem BioAssay (NCI).

Test systems include 786-0 renal; HOP-62 NSCLC; M14 melanoma; OVCAR-3 ovarian; RXF 393 renal; SF-539 CNS; SK-MEL-2 melanoma; SK-MEL-5 melanoma; UO-31 renal; SNB-75 CNS.
Holding throughout (assay): DTP human tumour cell line panel, 48 h

With `CC(=O)OC1COC(Oc2c(C)c3c4c(c2O)[C@@H](C)CC[C@@H]4[C@@H](C)C[C@H]3C=C(C)C)C(O)C1OC(C)=O` (stereo partly specified), the GI50 is 16.4 µM in the assay with 786-0 renal; 20 µM in the assay with HOP-62 NSCLC; 13.7 µM with M14 melanoma; 10.6 µM in the assay on OVCAR-3 ovarian; 11.4 µM with RXF 393 renal; 22.4 µM in the assay on SF-539 CNS. Further, the GI50 in the assay on SK-MEL-2 melanoma is 17.9 µM; with SK-MEL-5 melanoma, 24.7 µM; in the assay on UO-31 renal, 17.3 µM. Besides, the TGI in the assay with 786-0 renal stood at 31.8 µM; in the assay with HOP-62 NSCLC, 36.1 µM; with M14 melanoma, 27.8 µM; in the assay on OVCAR-3 ovarian, 23.3 µM; with RXF 393 renal it was 28.5 µM; in the assay with SF-539 CNS, 42.6 µM. Further, the TGI in the assay with SK-MEL-2 melanoma was 42.1 µM; in the assay with SK-MEL-5 melanoma, 52.7 µM; in the assay on UO-31 renal, 40.9 µM.
Turning to `COc1cc(OCc2cccc(-c3ccc(C(O)c4nccs4)cc3)c2C)cc(OC)c1C=O` (stereo unspecified), the GI50 in the assay on 786-0 renal was 2.16 µM; in the assay with HOP-62 NSCLC, 3.88 µM; in the assay with M14 melanoma, 2.55 µM; in the assay on OVCAR-3 ovarian, 1.62 µM; with RXF 393 renal, 2.22 µM; in the assay with SF-539 CNS, 1.96 µM. In addition, the GI50 with SK-MEL-2 melanoma is 2.58 µM; with SK-MEL-5 melanoma, 1.11 µM; in the assay with UO-31 renal, 1.49 µM. In addition, the TGI in the assay with 786-0 renal was determined as 7.2 µM; in the assay with HOP-62 NSCLC, 18.3 µM; in the assay with M14 melanoma, 7.61 µM; in the assay on OVCAR-3 ovarian, 4.36 µM; in the assay on RXF 393 renal it was 6.93 µM; in the assay on SF-539 CNS, 4.83 µM. For the same compound, the TGI was determined as 8.53 µM in the assay on SK-MEL-2 melanoma, 2.4 µM in the assay on SK-MEL-5 melanoma and 4.68 µM with UO-31 renal.
For `CCC(=O)CC(=O)CCC(=O)Nc1cc(C)ccc1C`, the TGI in the assay with 786-0 renal, in the assay with M14 melanoma, in the assay with OVCAR-3 ovarian, in the assay with RXF 393 renal, in the assay on SF-539 CNS and with SK-MEL-2 melanoma was above 100 µM throughout. Further, the TGI in the assay with SK-MEL-5 melanoma, in the assay on SNB-75 CNS and in the assay with UO-31 renal was above 100 µM each time.
Consider `O=C1CCC(Cl)=CC2CCCN12` (stereo unspecified), for which the TGI in the assay on 786-0 renal, in the assay on HOP-62 NSCLC, with M14 melanoma, in the assay on RXF 393 renal, in the assay on SF-539 CNS and in the assay with SK-MEL-2 melanoma was above 100 µM in each case. In addition, the TGI with SK-MEL-5 melanoma, in the assay on SNB-75 CNS and with UO-31 renal was above 100 µM in each case.
In the case of `O=C(/C=C/c1ccccc1)CCC1C(=O)c2ccccc2C1=O`, the total growth inhibition concentration (TGI) in the assay with 786-0 renal, in the assay with M14 melanoma, with OVCAR-3 ovarian, with RXF 393 renal, with SF-539 CNS and with SK-MEL-2 melanoma was above 100 µM each time. For the same compound, the TGI in the assay on SK-MEL-5 melanoma, in the assay with SNB-75 CNS and in the assay on UO-31 renal was above 100 µM in each case.
Consider `NC(N)=N/N=C/c1c(-c2ccsc2)nc2sccn12`, for which the GI50 was 12 µM with 786-0 renal; 14.3 µM in the assay with HOP-62 NSCLC; 18.5 µM in the assay with M14 melanoma; 8.8 µM in the assay with OVCAR-3 ovarian; 17.9 µM in the assay with RXF 393 renal; 18.3 µM with SF-539 CNS. Also, the GI50 in the assay with SK-MEL-5 melanoma was 14.4 µM; in the assay with SNB-75 CNS, 13.4 µM; with UO-31 renal, 20 µM. Further, the TGI in the assay on 786-0 renal was 24.3 µM; in the assay with HOP-62 NSCLC, 27.4 µM; in the assay with M14 melanoma, 32.4 µM; with OVCAR-3 ovarian, 21.2 µM; with RXF 393 renal, 40 µM; with SF-539 CNS, 34.2 µM. Also, the TGI in the assay with SK-MEL-5 melanoma was 28.8 µM; in the assay with SNB-75 CNS, 26.4 µM; in the assay with UO-31 renal, 36.8 µM.
As to `COc1ccc2occ(CCC(=O)O)c2c1`, the TGI in the assay with 786-0 renal, with HOP-62 NSCLC, in the assay on M14 melanoma, with OVCAR-3 ovarian, in the assay with RXF 393 renal and in the assay with SF-539 CNS was above 100 µM each time. Besides, the concentration for total growth inhibition (TGI) in the assay on SK-MEL-5 melanoma and in the assay on SNB-75 CNS was above 100 µM throughout.
`CCOC(=O)C1=CN(C)C=C(C(=O)OCC)C1c1cc(Br)c(OCC)c(OC)c1`: the GI50 in the assay with 786-0 renal was above 100 µM; in the assay on HOP-62 NSCLC, above 100 µM; in the assay with M14 melanoma, above 100 µM; with OVCAR-3 ovarian, 48 µM; in the assay with RXF 393 renal, 8.74 µM; in the assay with SF-539 CNS it was above 100 µM. Besides, the GI50 is 49.2 µM in the assay with SK-MEL-5 melanoma, 20.8 µM in the assay with SNB-75 CNS and 39.9 µM with UO-31 renal. In addition, the TGI in the assay on 786-0 renal, in the assay on HOP-62 NSCLC, in the assay with M14 melanoma, in the assay with OVCAR-3 ovarian, in the assay with RXF 393 renal and in the assay on SF-539 CNS was above 100 µM each time. Also, the TGI in the assay with SK-MEL-5 melanoma, in the assay with SNB-75 CNS and with UO-31 renal was above 100 µM each time.
`NC(=S)N/N=C/C(=O)O`: the GI50 in the assay with 786-0 renal was above 100 µM; in the assay on HOP-62 NSCLC, above 100 µM; with M14 melanoma, above 100 µM; in the assay with OVCAR-3 ovarian it was 31.7 µM; with SF-539 CNS, above 100 µM; in the assay on SK-MEL-2 melanoma it was above 100 µM. In addition, the GI50 in the assay on SK-MEL-5 melanoma, with SNB-75 CNS and in the assay on UO-31 renal was above 100 µM each time. Moreover, the TGI in the assay with 786-0 renal, in the assay with HOP-62 NSCLC, with M14 melanoma, in the assay with OVCAR-3 ovarian, in the assay with SF-539 CNS and in the assay on SK-MEL-2 melanoma was above 100 µM throughout. The TGI in the assay with SK-MEL-5 melanoma, in the assay on SNB-75 CNS and in the assay on UO-31 renal was above 100 µM throughout.
With `CC1=C(C(=O)Nc2ccc(F)c(Cl)c2)C(c2ccccc2O)NC(=S)N1` (stereo unspecified), the GI50 is above 50 µM with 786-0 renal; above 50 µM in the assay with HOP-62 NSCLC; above 50 µM with M14 melanoma; 12.6 µM in the assay with OVCAR-3 ovarian; 2.15 µM in the assay on RXF 393 renal; 23.6 µM in the assay on SK-MEL-2 melanoma. The GI50 is 21.9 µM with SK-MEL-5 melanoma and above 50 µM in the assay on UO-31 renal. Moreover, the TGI with 786-0 renal is above 50 µM; with HOP-62 NSCLC, above 50 µM; with M14 melanoma, above 50 µM; in the assay on OVCAR-3 ovarian, 42.6 µM; in the assay with RXF 393 renal it was above 50 µM; in the assay with SK-MEL-2 melanoma it was above 50 µM. In addition, the TGI in the assay with SK-MEL-5 melanoma and in the assay with UO-31 renal was above 50 µM each time.
